Measured values: US8647887B2, “Measuring G protein coupled receptor activation” (Commonwealth Scientific and Industrial Research Organisation, priority 2009, dated 2014)
“And” between values parts separate entries of the source, which are not always exact repeats. Equal entries are not always repeated.

Columns and labels:
Str112 receptor (TGTR) = test: cell-free BRET^2 assay with dual-tagged Str112 (TGTR); assay type: biochemical, C. elegans; conditions: 1 μM ligand, 10 nM TGTR; for BRET^2 signal compared to the response of TGTR to water, significance: P≦0.05
Excerpt: (§1) The TGTR sequence flanked by NcoI and NotI restriction sites was synthesised by Genscript. The TGTR sequence was inserted into the NcoI and NotI sites of the pENTR11 vector. These were then recombined into pYES-DEST52 (Invitrogen) using Gateway® technology for subsequent expression in S. cerevisiae.
The same expression protocol was used for the expression of TGTR in InVSC1 as for OGOR expression. The TGTR coding sequence is provided as SEQ ID NO:51, whereas the amino acid sequence is provided as SEQ ID NO:52.
The same RET analysis protocol as described for the OGOR selectivity studies. 1 μM of the ligands pyruvic acid, citric acid, ethyl acetate, acetoin and diacteyl was assayed with 10 nM of TGTR
The bacterial strain OP50 was grown in LB overnight at 37° C. with shaking (200 rpm). E. coli strain OP50 is usually used as a food source for nematode growth in the laboratory (Brenner, 1974). Two assays were performed using the OP50 bacterial culture. The first assay was the addition of 10 μL of the bacterial culture or 10 μL of LB to 10 nM TGTR. The second assay required that 1 mL of the bacterial culture was placed in a microcentrifuge tube and centrifuged at 10000×g for 1 minute. 10 μL of the supernatant, following decanting into a fresh microcentrifuge tube, or 10 μL of LB was added to 10 nM TGTR. Following bacterial sample addition the same protocol was followed as for the OGOR RET analysis.

ODR-10 receptor (OGOR) = test: cell-free BRET^2 assay with dual-labelled ODR-10 (OGOR) in yeast membrane preparations; assay type: biochemical, C. elegans
Method: Cells were harvested by centrifugation at 1500×g (4° C.) for 5 minutes, washed in water and resuspended in 4 mL of Dulbecco's phosphate buffered saline (D-PBS) or 1×PBS, containing 1000 mg/L glucose, 36 mg/L sodium pyruvate, calcium and magnesium (Invitrogen). The cells were lysed by French press (˜18000 psi) and the soluble protein fractions were isolated by centrifugation at 9300×g (4° C.) for 15 minutes. Following this the soluble protein fraction was transferred to 13.15 mL polycarbonate thick wall centrifuge tubes and ultracentrifuged at 40,000 rpm (Beckman Coulter L-80 ultra-centrifuge) for 1 hour at 4° C. The supernatant was decanted and the membrane pellet resuspended in 1 mL of D-PBD or 1×PBS, and left overnight at 4° C. to solubilise.
Simultaneous dual emission RET measurements were carried out with a POLARstar OPTIMA microplate reader (BMG LabTech). Simultaneous emission measurements used a BRET^2 filter set (410-80/515-30) with the set respective gains for each channel (3300/4095).
To assess the relative concentrations of BRET^2 tagged receptor samples the fluorescence intensity of the sample was determined from spectral scans and the sample amount normalized by the OGOR fluorescence intensity. To convert GFP^2 intensity into concentration purified GFP^2 protein was assayed at different concentrations to produce a calibration graph relating concentration to fluorescence intensity. […] Rearranging the line of best fit equation (y=271x+233.31) results in conversion of fluorescence intensity to concentration. […]
RET analysis was carried out in 96-well plates (Perkin-Elmer) and involved incubating the specified dual tagged receptor protein (OGOR) for 45 minutes with 1 μM of each particular odorant. […] A background signal was recorded by assaying a sample of D-PBS (or 1×PBS). […]
For BRET measurements Clz400a substrate (5 μM) was added following the 45 minute incubation time and the signal recorded using a 0.50s integration time over a 5 second period. Following addition of Clz400a the well was re-sealed while the signal was recorded to reduce cross-contamination of samples. […]

OGOR mutant (H110Y) = test: cell-free BRET^2 assay with OGOR mutant (H110Y), negative control; assay type: biochemical, C. elegans; conditions: μM concentrations of diacetyl
Method: Site-directed mutagensis was carried out with OGOR in pDONR201 vector (see above) as the double stranded template. The histidine 110 to tyrosine (H110Y) mutation was performed using the Stratagene Quickchange site directed mutagenesis kit according to standard protocols using the following primers; 5′-[…]-3′ (WT) (SEQ ID NO:43) and 5′-[…] GTG-3′ (H110Y antisense) (SEQ ID NO:44).
PCR was performed with Pfx50™ standard ingredients (Invitrogen) and conditions were as follows 94° C. 2 mins, 16 cycles of 94° C. 30 secs, 55° C. 1 minute, 68° C. 6.8 minutes. Following sequencing the OGOR mutant was then subcloned into pYES-DEST52 (Invitrogen) using Gateway® technology (5′ and 3′ attB sites were included in original OGOR sequence) for subsequent expression in S. cerevisiae.
RET analysis was carried out in 96-well plates (Perkin-Elmer) and involved incubating the specified dual tagged receptor protein (OGOR) for 45 minutes with 1 μM of each particular odorant. The final volume was 100 μL and included 10 μL of odorant, receptor protein sample (see ‘Normalization of sample concentration’ section), D-PBS (or 1×PBS) and 5 μL of Clz400a (5 μM). A background signal was recorded by assaying a sample of D-PBS (or 1×PBS). During the incubation time the 96-well plate wells were sealed with Topseal™—A (Packard) with each sample area individually sealed. […]

ODR-10 receptor (OCOY) = test: cell-free FRET assay with dual-labelled ODR-10 (OCOY); assay type: biochemical, C. elegans; conditions: μM concentrations of diacetyl
Method: All spectral scans were recorded with a plate-reading SpectraMax M2 spectrofluorimeter (Molecular Devices). 100 μL aliquots of membrane preparations sample were scanned using 96-well plates (Perkin-Elmer). Fluorescence spectral scans recorded from 450 to 600 nm with an excitation wavelength of 420 nm using a 455 nm emission cut-off filter.
To compare the sensitivity of the BRET^2 system to the FRET system for monitoring GPCR activation the BRET^2 components used to tag the ODR-10 receptor (OGOR) were replaced with FRET components resulting in the insertion of CFP into the 3rd intracellular loop and YFP at the C-terminus (OCOY). The CFP (mCFP) (SEQ ID NO:45) and YFP (mCitrine) (SEQ ID NO:46) derivatives were both monomeric and codon optimized (EUROSCARF) for yeast expression (SEQ ID NOs 47 and 48 respectively).
as §1, with “OCOY” for “TGTR”, “KpnI” for “NcoI”, “XhoI” for “NotI”, “cerevisiae. […]” for “cerevisiae.”
To assess the relative concentrations of dual-tagged receptor samples the fluorescence intensity of the sample was determined from spectral scans and the sample amount normalized by the OCOY fluorescence intensity. […]

whole-cell BRET^2 assay = assay type: cell-based; conditions: 1 μM, 45 minutes incubation, P≦0.05
Method: FIG. 16. BRET^2 signal upon incubation (45 minutes) with 1 μM of diacetyl (mean±S.D., n=3) monitored using a whole-cell and cell-free assay systems.

[1] = system: ODR-10 expressing HEK 293 cells; conditions: cited from earlier work
α2A receptor = molecular target: T1, α2A receptor (Mus musculus, UniProt Q01338); conditions: 10 nM; cited from earlier work
T1 sequence (Q01338 1-465): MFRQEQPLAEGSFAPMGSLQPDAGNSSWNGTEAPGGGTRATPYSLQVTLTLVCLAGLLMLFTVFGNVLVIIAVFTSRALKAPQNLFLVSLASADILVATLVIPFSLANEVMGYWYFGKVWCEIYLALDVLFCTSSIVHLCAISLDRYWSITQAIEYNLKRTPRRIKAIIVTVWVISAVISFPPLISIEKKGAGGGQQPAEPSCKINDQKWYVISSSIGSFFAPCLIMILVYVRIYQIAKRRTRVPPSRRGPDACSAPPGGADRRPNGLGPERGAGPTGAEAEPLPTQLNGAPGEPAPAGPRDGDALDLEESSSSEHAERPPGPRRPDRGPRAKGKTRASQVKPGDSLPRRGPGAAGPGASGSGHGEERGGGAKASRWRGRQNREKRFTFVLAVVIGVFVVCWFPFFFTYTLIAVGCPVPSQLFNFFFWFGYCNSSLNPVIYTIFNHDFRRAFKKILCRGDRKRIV

PTHR = molecular target: T2, PTHR (Homo sapiens, UniProt Q03431); conditions: 1 μM; cited from earlier work
T2 sequence (Q03431 27-593): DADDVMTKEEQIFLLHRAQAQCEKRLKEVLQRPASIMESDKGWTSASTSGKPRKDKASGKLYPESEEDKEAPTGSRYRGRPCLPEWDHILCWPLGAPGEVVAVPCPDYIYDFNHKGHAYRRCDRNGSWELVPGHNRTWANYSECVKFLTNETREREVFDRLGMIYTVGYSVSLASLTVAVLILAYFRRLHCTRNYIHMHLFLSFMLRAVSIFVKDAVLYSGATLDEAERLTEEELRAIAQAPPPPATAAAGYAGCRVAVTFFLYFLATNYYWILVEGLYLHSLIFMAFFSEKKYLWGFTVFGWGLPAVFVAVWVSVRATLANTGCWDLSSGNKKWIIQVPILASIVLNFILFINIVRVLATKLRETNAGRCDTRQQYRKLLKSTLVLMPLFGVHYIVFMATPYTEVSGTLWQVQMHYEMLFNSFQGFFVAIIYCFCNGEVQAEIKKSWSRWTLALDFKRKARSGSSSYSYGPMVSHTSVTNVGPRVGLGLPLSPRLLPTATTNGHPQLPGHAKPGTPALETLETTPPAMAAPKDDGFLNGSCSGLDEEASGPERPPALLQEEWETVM

CC(=O)C(C)O (stereo not shown) [acetoin]
increase in the BRET^2 signal (Str112 receptor (TGTR)): 20.8%
BRET^2 signal compared to the response of TGTR to water, significance (Str112 receptor (TGTR)): significantly higher

CC(=O)C(C)=O [diacetyl]
decrease in the BRET^2 signal, cell-free assay system (ODR-10 receptor (OGOR); 1 μM, 45 minutes incubation, Example 7, P≦0.05): 52%
change in BRET^2 signal compared to the solvent (water) response (ODR-10 receptor (OGOR); OGOR, μM concentrations (1 μM) of ligand, 45 minutes incubation, decrease in signal): 37.5% and 32.4%
EC50 expressed as parts per quadrillion (ODR-10 receptor (OGOR); equivalent of the fM EC50): 0.31 ppq
BRET^2 response to diacetyl (OGOR mutant (H110Y)): 4.1%
response versus solvent (water) response, significance (OGOR mutant (H110Y)): not significantly different
reduction in FRET ratio (intensity at 520 nm/intensity at 480 nm) (ODR-10 receptor (OCOY)): 7.6%
response versus solvent (water) response, significance (ODR-10 receptor (OCOY)): significantly different
change in the BRET^2 signal, whole cell assay (whole-cell BRET^2 assay): no significant change
Ca^2+ elevation response ([1]; ODR-10 expressing HEK 293 cells): the only volatile compound to produce a Ca^2+ elevation response
apparent affinity (EC50) as part per million ([1]; expressed in human cells, calcium imaging): ~0.2 ppm
EC50 ([1]; expressed in human cells, calcium imaging, read-out: apparent affinity (EC50) of ODR-10 for diacetyl): 2.3 µM

NC[C@H](O)c1ccc(O)c(O)c1 [norepinephrine]
change in the FRET signal upon binding (α2A receptor): ~5%

CC(=O)C(=O)O [pyruvic acid]
BRET^2 signal compared to the response of TGTR to water, significance (Str112 receptor (TGTR)): significantly higher

PTH: parathyroid hormone, agonist of PTHR, literature value
change in the FRET signal upon binding (PTHR): ~20%
